From patent US7541466B2, “Tetrahydroisoquinoline derivatives for treating protein trafficking diseases” (Genzyme Corporation, priority 2003, dated 2009)

Tests used:
[1] = molecular target: T1, ΔF508 CFTR (Homo sapiens, UniProt P13569, DEL508-508); assay: MQAE chloride transport assay in C127 cells expressing ΔF508 CFTR; format: cell-based, murine; conditions: for EC50: chloride transport activity, C127 ΔF508 CFTR cells, MQAE; for % of Maximal Response: plateau level in activity at high compound concentration; for % of Maximal Response / Emax: as a percentage of the low temperature response; for Emax: C127, plateau level in activity at high compound concentration, read-out: % of Maximal Response
T1 construct: expressed in transfected cells
Experimental: C127 cells are a murine mammary epithelial cell line obtained from ATCC (#CRL 1616, American Type Culture Collection, Manassas, Va.). C127 cells were transfected with a bovine papilloma virus-based eukaryotic expression vector containing genes for ΔF508 CFTR and neomycin resistance whose expression was driven by a metallothionein promoter. Clonal cell populations resistant to G418 and positive for staining with anti-CFTR antibody were identified.
C127 cells expressing ΔF508 CFTR were grown in microtiter plates in DMEM (Dulbecco's Modified Eagle Medium, Hyclone, Logan, Utah) supplemented with fetal bovine serum, antibiotics, and glutamine in a 37° C., 5% CO2 atmosphere. Once confluent, the cells were loaded overnight with the disclosed compounds and a fluorescent dye sensitive to chloride ion concentration, N-(ethoxycarbonylmethyl)-6-methoxy quinolinium bromide (MQAE) (Verkman, Am. J. Physiol. 259 C375-C388 (1990)).
The following day, cells were washed with chloride-containing buffer to remove extracellular MQAE and to quench intracellular MQAE fluorescence. Chloride buffer was flicked out and replaced with nitrate buffer with added forskolin and IBMX (isobutylmethylxanthine) to stimulate CFTR activity. […] Buffers were adjusted to pH 7.4 and contained: 10 mM HEPES (N-2-Hydroxyethylpiperazine-N′-2-ethanesulfonic acid), 2.4 mM K2HPO4, 0.6 mM KH2PO4, 1.0 mM CaSO4, 1.0 mM MgSO4, 150 mM NaCl or NaNO3, and 25 mM glucose.
The increase in MQAE fluorescence as a function of time was followed using 360 nm excitation and 460 nm emission wavelengths. Fluorescence increased as chloride flowed out of cells through CFTR and the rate of increase in fluorescence over the first five minutes was taken as a measure of chloride transport activity.
Cells were treated with mixtures of up to 100 compounds per well for ca. 18 hours before the assay for chloride transport activity. […] Dose-response curves were generated and compounds were ranked based on their EC50 values and maximal responses (the plateau level in activity at high compound concentration, as a percentage of the low temperature response).

[2] = system: wild-type C57black6/J mice; conditions: female wild-type mice; 4 g/kg/day dose for 2 days; previously measured; cited from earlier work

T1 sequence (P13569 with tags, fused parts or gaps DEL508-508): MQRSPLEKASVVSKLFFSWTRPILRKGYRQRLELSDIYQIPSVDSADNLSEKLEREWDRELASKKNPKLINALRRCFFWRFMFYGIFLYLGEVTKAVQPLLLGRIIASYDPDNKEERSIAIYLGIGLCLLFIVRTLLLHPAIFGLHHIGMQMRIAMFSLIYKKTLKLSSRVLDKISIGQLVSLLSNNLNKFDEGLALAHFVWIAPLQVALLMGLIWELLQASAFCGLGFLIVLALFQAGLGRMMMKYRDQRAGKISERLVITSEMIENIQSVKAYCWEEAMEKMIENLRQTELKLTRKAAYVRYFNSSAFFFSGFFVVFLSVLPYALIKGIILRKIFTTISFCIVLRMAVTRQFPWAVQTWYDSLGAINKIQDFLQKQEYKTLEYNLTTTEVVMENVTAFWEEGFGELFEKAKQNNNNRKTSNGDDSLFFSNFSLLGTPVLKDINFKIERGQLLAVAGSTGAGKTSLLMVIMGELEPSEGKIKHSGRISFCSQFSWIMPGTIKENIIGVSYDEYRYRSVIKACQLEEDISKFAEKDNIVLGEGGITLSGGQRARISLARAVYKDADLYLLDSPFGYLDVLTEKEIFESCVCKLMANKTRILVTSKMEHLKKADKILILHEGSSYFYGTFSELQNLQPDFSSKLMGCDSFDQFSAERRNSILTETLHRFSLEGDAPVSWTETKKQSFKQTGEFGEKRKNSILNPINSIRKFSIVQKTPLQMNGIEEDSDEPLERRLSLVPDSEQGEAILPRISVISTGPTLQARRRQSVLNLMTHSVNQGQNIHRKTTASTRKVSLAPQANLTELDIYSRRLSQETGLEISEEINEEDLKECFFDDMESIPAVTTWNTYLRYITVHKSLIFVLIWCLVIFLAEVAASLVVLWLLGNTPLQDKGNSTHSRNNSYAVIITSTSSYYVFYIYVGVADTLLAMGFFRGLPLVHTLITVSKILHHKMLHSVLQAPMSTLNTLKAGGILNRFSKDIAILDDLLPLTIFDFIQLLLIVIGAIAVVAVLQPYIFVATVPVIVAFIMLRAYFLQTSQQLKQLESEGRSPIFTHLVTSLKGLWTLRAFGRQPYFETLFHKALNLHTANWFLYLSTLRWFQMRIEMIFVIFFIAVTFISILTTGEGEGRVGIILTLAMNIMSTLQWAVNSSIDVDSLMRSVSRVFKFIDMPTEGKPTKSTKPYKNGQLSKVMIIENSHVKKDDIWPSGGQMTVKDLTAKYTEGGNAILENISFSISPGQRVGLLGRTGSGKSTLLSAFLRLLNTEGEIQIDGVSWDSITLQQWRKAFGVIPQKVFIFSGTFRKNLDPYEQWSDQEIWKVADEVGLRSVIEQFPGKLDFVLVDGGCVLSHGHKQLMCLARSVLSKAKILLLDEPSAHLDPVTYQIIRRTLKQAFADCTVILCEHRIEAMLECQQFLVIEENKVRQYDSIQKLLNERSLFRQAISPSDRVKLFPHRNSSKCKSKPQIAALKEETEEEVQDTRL

Row | Structure (SMILES) | EC50 [1] | % of Maximal Response [1] | Emax [1] | increase of forskolin response in RPD [2]
1 | CCCCCc1ccc(NC(=O)[C@@H]2Cc3ccccc3CN2C(=O)c2cccc(Oc3ccc(OCC)c(Oc4ccccc4)c3)c2)cc1 [Compound 121, (S)-2-[3-(4-Ethoxy-3-phenoxyphenoxy)benzoyl]-1,2,3,4-tetrahydroisoquinoline-3-carboxylic acid (4-pentylphenyl)amide] | 6.3 nM | 80% | – | –
2 | CCCCCc1ccc(NC(=O)[C@@H]2Cc3ccccc3CN2C(=O)c2ccc(OC)c(OCCN3CCOCC3)c2)cc1 [Compound 128, (S)-2-[4-Methoxy-3-(2-morpholin-4-yl-ethoxy)benzoyl]-1,2,3,4-tetrahydroisoquinoline-3-carboxylic acid (4-pentylphenyl)amide] | 110 nM | – | 63% | –
3 | CCCCCc1ccc(NC(=O)[C@@H]2Cc3ccccc3CN2C(=O)c2cc(Cl)cc(Cl)c2)cc1 [Compound 133] | 14 nM | – | 70% | –
4 | CCCCCc1ccc(NC(=O)[C@@H]2Cc3ccccc3CN2C(=O)c2ccc3c(c2)OCCO3)cc1 [Compound 135] | 290 nM | – | 56% | –
5 | CCCCCc1ccc(NC(=O)[C@@H]2Cc3ccccc3CN2C(=O)c2cc(OCCN3CCOCC3)cc(OC(C)C)c2)cc1 [Compound 137] | 180 nM | – | 69% | –
6 | CCCCCc1ccc(NC(=O)[C@@H]2Cc3ccccc3CN2C(=O)c2cc(OC)c(OC)c(OC)c2)cc1 [Compound 138] | 93 nM | – | 67% | –
7 | CCCCCc1ccc(NC(=O)[C@@H]2Cc3ccccc3CN2C(=O)c2cc(OC(C)C)c(OC)cn2)cc1 [Compound 145, (S)-2-(4-Isopropoxy-5-methoxypyridine-2-carbonyl)-1,2,3,4-tetrahydroisoquinoline-3-carboxylic acid(4-pentylphenyl)amide] | 25 nM | 75% | – | –
8 | CCCCCc1ccc(NC(=O)[C@@H]2Cc3ccccc3CN2C(=O)c2cc(Oc3cccnc3)ccn2)cc1 [Compound 147] | 41 nM | – | 32% | –
9 | C[N+](C)(C)[O-] [trimethylamine oxide, trimethylamine-N-oxide] | – | – | – | 7.5 mV

Further lines, with some results ahead:

Row | EC50 [1] | % of Maximal Response [1] | Emax [1] | Structure (SMILES) | increase of forskolin response in RPD [2]
10 | 10 nM | – | 83% | CCCCCc1ccc(NC(=O)[C@@H]2Cc3ccccc3CN2C(=O)c2cccc(OC(C)(C)C)c2)cc1 [Compound 122] | –
11 | 95 nM | – | 63% | CCCCCc1ccc(NC(=O)[C@@H]2Cc3ccccc3CN2C(=O)c2cccc(CN3CCOCC3)c2)cc1 [Compound 123] | –
12 | 180 nM | – | 83% | CCCCCc1ccc(NC(=O)[C@@H]2Cc3ccccc3CN2C(=O)c2ccc(OC)c(OC)c2)cc1 [Compound 127] | –
13 | 4.4 nM | – | 84% | CCCCCc1ccc(NC(=O)C2Cc3ccccc3CN2C(=O)c2cccc(OC(C)CC)c2)cc1 (stereo not shown) [Compound 140] | –
14 | 12 nM | – | 84% | CCCCCc1ccc(NC(=O)[C@@H]2Cc3ccccc3CN2C(=O)c2cccc(OC(CC)CC)c2)cc1 [Compound 141] | –
15 | 8 nM | – | 88% | CCCCCc1ccc(NC(=O)[C@@H]2Cc3ccccc3CN2C(=O)c2cccc(OC(C)C(C)C)c2)cc1 (stereo partly shown) [Compound 142] | –
16 | 5.9 nM | – | 85% | CCCCCc1ccc(NC(=O)[C@@H]2Cc3ccccc3CN2C(=O)c2ccc(C)c(OC(C)C)c2)cc1 [Compound 143] | –
